What was measured:
MCF7/WT (breast cancer) [1] = assay: Sequential treatment of MCF7/WT with Taxol followed by CDDP, % cell survival; type: cell-based, human; conditions: 2 hour
Procedure: (§1) In vitro experiments were conducted to determine the efficacy of platinum/taxane combination therapy and to determine if the order of administration of the agents affected the cytotoxicity. The agents used were cisplatin (CDDP) and paclitaxel (Taxol®®), and the cell line used was MCF7/WT (breast cancer). The results of the experiments are shown below in Tables 1 and 2.

MCF7/WT (breast cancer) [2] = assay: Sequential treatment of MCF7/WT with CDDP followed by Taxol, % cell survival; type: cell-based, human; conditions: 2 hour
Procedure: as §1

[3] = cited from earlier work

For `CC(=O)O[C@H]1C(=O)[C@@]2(C)[C@H]([C@H](OC(=O)c3ccccc3)[C@]3(O)C[C@H](OC(=O)[C@H](O)[C@@H](NC(=O)c4ccccc4)c4ccccc4)C(C)=C1C3(C)C)[C@]1(OC(C)=O)CO[C@@H]1C[C@@H]2O` [Taxol ®, paclitaxel], the “% cell survival, Average” value (MCF7/WT (breast cancer) [1]; Taxol 27 nM alone) was 88%, the “% cell survival, Average” value (MCF7/WT (breast cancer) [1]; Taxol 45 nM alone) was 82% and the “% cell survival, Average” value (MCF7/WT (breast cancer) [2]; Taxol 27 nM alone) was 71%. For the same compound, the “% cell survival, Average” value (MCF7/WT (breast cancer) [2]; Taxol 45 nM alone) was 45%.

For `[NH2][Pt]([NH2])([Cl])[Cl]` [CDDP, cisplatin], the “% cell survival, Average” value (MCF7/WT (breast cancer) [1]; CDDP 4.25 uM alone) was 73%, the “% cell survival, Average” value (MCF7/WT (breast cancer) [1]; CDDP 8.5 uM alone) was 52% and the “% cell survival, Average” value (MCF7/WT (breast cancer) [2]; CDDP 4.25 uM alone) was 71%. The “% cell survival, Average” value (MCF7/WT (breast cancer) [2]; CDDP 8.5 uM alone) was 50%.

In the case of `O=S(=O)([O-])CCSSCCS(=O)(=O)[O-].[Na+].[Na+]` [Dimesna, Disodium 2,2′-dithiobis ethane sulfonate], the “interference with cytotoxic effects of co-administered antineoplastic agent(s)” value ([3]; co-administration) is given as “not to interfere with the cytotoxic effects” and the “effect on unwanted toxic effects of single agent cisplatin and single agent paclitaxel” value ([3]; human patients) is given as “reduce the unwanted toxic effects”.

— patent publication US6596320B1, “Method for treating cancer having greater efficacy and reduced adverse effects” (BioNumerik Pharmaceuticals, Inc., priority 2002, dated 2003)
